Patent US10787432B2, “N-[(pyridyloxy)propanyl]benzamides” (Boehringer Ingelheim International GmbH, priority 2016, dated 2020)

system: not listed separately; experiment: Assay C: Metabolic stability in human liver microsomes (Human MST); format: in vitro ADME; conditions: pooled human liver microsomes, pH 7.6; human liver microsomes 1 mg/mL, compound 1 μM, 37° C., NADPH; read-out: Human MST t1/2
Protocol: C. Assessment of Metabolic Stability in Human Liver Microsomes (Human MST)
The metabolic stability of the compounds according to the invention may be investigated as follows:
The metabolic degradation of the test compound is assayed at 37° C. with pooled human liver microsomes. The final incubation volume of 100 μL per time point contains TRIS buffer pH 7.6 at room temperature (0.1 M), MgCl2 (5 mM), microsomal protein (1 mg/mL) and the test compound at a final concentration of 1 μM. Following a short pre-incubation period at 37° C., the reactions are initiated by addition of beta-nicotinamide adenine dinucleotide phosphate, reduced form (NADPH, 1 mM), and terminated by transferring an aliquot into solvent after different time points. After centrifugation (10000 g, 5 min), an aliquot of the supernatant is assayed by LC-MS/MS for the amount of parent compound. The half-life (t1/2) is determined by the slope of the semi-logarithmic plot of the concentration-time profile.

Point of comparison: `CCN(C(=O)c1cccc(F)c1-c1nnc(C)o1)[C@@H](C)COc1ncc(C(F)(F)F)cc1F` [Example 61], half-life at 1 μM 26 min. Against it:
- CCN(C(=O)c1cc(C#N)ccc1-n1nccn1)[C@@H](C)COc1ncc(C(F)(F)F)cc1F [Example 57] — higher, > 130 min
- CCN(C(=O)c1cccc(C)c1-c1nnc(C)o1)[C@@H](C)COc1ncc(C(F)(F)F)cc1F [Example 64] — 1.7-fold lower, 15 min
- CCN(C(=O)c1ccccc1-c1nnc(C)o1)[C@@H](C)COc1ncc(C(F)(F)F)cc1F [Example 68] — 2-fold higher, 53 min
- CCN(C(=O)c1ccc(C#N)cc1-n1nccn1)[C@@H](C)COc1ncc(C(F)(F)F)cc1F [Example 69] — 1.7-fold higher, 43 min
- CCN(C(=O)c1ccc(Cl)cc1-n1nccn1)[C@@H](C)COc1ncc(C(F)(F)F)cc1F [Example 73] — 2.2-fold lower, 12 min
- CCN(C(=O)c1ccccc1-c1ccn(C)n1)[C@@H](C)COc1ccc(C(F)(F)F)cn1 [Example 74] — 1.9-fold lower, 14 min
- CCN(C(=O)c1ccccc1-c1cncc(C#N)c1)[C@@H](C)COc1ccc(C(F)(F)F)cn1 [Example 76] — 2.4-fold lower, 11 min

biological target: T1, human orexin 2 receptor (Homo sapiens, UniProt O43614); experiment: Assay B: In vitro testing of OX2R potency: OX2R IP1 (HTRF, CHO-K1/hOX2 cells, Orexin A as agonist); format: cell-based; conditions: Orexin A 0.5 nM
T1 construct: stably expressing the full-length human orexin 2 receptor; expressed in transfected cells; host or cells: CHO-K1 (CHO-K1/hOX2), co-expressing aequorin
T1 sequence (O43614 1-444): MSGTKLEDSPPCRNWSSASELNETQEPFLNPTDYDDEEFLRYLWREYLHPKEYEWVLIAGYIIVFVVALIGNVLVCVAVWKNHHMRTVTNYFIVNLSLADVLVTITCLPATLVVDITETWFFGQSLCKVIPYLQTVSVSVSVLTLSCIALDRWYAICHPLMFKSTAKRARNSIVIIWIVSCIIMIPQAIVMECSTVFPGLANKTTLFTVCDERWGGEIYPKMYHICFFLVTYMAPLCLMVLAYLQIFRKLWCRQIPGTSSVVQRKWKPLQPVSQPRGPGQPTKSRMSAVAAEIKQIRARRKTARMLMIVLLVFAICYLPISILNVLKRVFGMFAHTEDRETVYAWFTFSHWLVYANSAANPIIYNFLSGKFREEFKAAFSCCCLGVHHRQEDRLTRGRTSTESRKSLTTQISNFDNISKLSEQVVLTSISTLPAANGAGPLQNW
Excerpt: Activation of the orexin receptors expressed in cell lines results in an increase in intracellular IP3 concentration. IP1, a downstream metabolite of IP3, accumulates in cells following receptor activation and is stable in the presence of LiCl. Using Homogeneous Time-Resolved Fluorescence technology with Lumi4-Tb cryptate (commercially available from Cisbio Bioassay.) and a suitable fluorescence plate reader. […] Chem. Genomics 2009, 3, 22-32. This technique is used to characterize pharmacological modification of the orexin receptors.
B. In Vitro Testing of OX2R Potency: OX2R IP1
IP1 measurements are performed in CHO-K1 cells stably expressing the full-length human orexin 2 receptor and the aequorin photoprotein. Cells are cultivated in Ham's nutrient mixture F12 medium with 10% fetal calf serum, in a 37° C., 95% humidity and 5% CO2 incubator. The CHO-K1/hOX2 cell mass is expanded to larger cell numbers. The cells are obtained as frozen cells in cryo-vials and stored until use at −150° C. The viability of the cells after thawing is >90%. In preparation for the assay, 24 hours before the assay, the cells are thawed at 37° C. and immediately diluted with cell culture medium. After centrifugation, the cell pellet is resuspended in medium and then distributed into the assay plates with a density of 5000 cells/25 μL per well. The plates are incubated for one hour at room temperature to reduce edge effects before they are incubated for 24 hours at 37° C./5% CO2. Compounds are prepared by a 8-point serial dilution in DMSO and a final dilution step into assay buffer (HBSS with 20 mM HEPES, 0.1% BSA and 50 mM LiCl, pH 7.4) to ensure a final DMSO concentration of 1% in the assay.
On the day of the assay, cells in the plate are washed twice with 60 μL assay buffer (20 μL buffer remained in the wells after washing), followed by adding 5 μL per well of compounds diluted in assay buffer. After 15 minutes of incubation at room temperature 5 μL per well of Orexin A peptide (final concentration: 0.5 nM) dissolved in assay buffer is added to the assay plate. The assay plate is incubated for 60 minutes at 37° C. Then 5 μL per well of Anti-IP1-Cryptate Tb solution and 5 μL per well of IP1-d2 dilution are added to all well of the plate and the plate is incubated for a further 60 minutes light protected at room temperature. The emission at 615 nm and 665 nm (Excitation wavelength: 320 nm) are measured using an EnVision reader (PerkinElmer). The ratio between the emission at 665 nm and 615 is calculated by the reader.
8-point four parametric non-linear curve fitting and determination of IC50 values and Hill slopes is performed using a regular analysis software e.g. AssayExplorer (Accelrys). In order to establish an agonist concentration independent parameter, Kb values are calculated using the following equation: IC50/((2+(A/EC50)n)^1/n−1) (with A=concentration agonist, EC50=EC50 agonist, n=Hill slope agonist) (see P. Leff, I. G. Dougall, Trends Pharmacol. Sci. 1993, 14(4), 110-112).
Kb values from Assay A (OX1R) and Assay B (OX2R) can then provide a selectivity ratio which is independent of the agonist (Orexin A) concentration.

Point of comparison: `CCN(C(=O)c1ccc(Cl)cc1-n1nccn1)[C@@H](C)COc1ncc(C(F)(F)F)cc1F` [Example 73], Kb 235 nM. Against it:
- CCN(C(=O)c1cc(C#N)ccc1-n1nccn1)[C@@H](C)COc1ncc(C(F)(F)F)cc1F [Example 57] — within 1.5-fold, 203 nM
- CCN(C(=O)c1cccc(F)c1-c1nnc(C)o1)[C@@H](C)COc1ncc(C(F)(F)F)cc1F [Example 61] — 6.3-fold higher, 1480 nM
- CCN(C(=O)c1cccc(C)c1-c1nnc(C)o1)[C@@H](C)COc1ncc(C(F)(F)F)cc1F [Example 64] — 1.5-fold lower, 155 nM
- CCN(C(=O)c1ccccc1-c1nnc(C)o1)[C@@H](C)COc1ncc(C(F)(F)F)cc1F [Example 68] — 4.3-fold higher, 1000 nM
- CCN(C(=O)c1ccc(C#N)cc1-n1nccn1)[C@@H](C)COc1ncc(C(F)(F)F)cc1F [Example 69] — 18-fold higher, 4340 nM
- CCN(C(=O)c1ccccc1-c1ccn(C)n1)[C@@H](C)COc1ccc(C(F)(F)F)cn1 [Example 74] — 4.9-fold lower, 48 nM
- CCN(C(=O)c1ccccc1-c1cncc(C#N)c1)[C@@H](C)COc1ccc(C(F)(F)F)cn1 [Example 76] — 1.9-fold lower, 124 nM

biological target: T2, human Orexin 1 receptor (Homo sapiens, UniProt O43613); experiment: Assay A: In vitro testing of OX1R potency: OX1R IP1 (HTRF, CHO-K1/hOX1 cells, Orexin A as agonist); format: cell-based; conditions: OX1R Kb at 0.5 nM Orexin A
T2 construct: stably expressing the full-length human Orexin 1 receptor; expressed in transfected cells; host or cells: CHO-K1 (CHO-K1/hOX1), co-expressing aequorin
T2 sequence (O43613 1-425): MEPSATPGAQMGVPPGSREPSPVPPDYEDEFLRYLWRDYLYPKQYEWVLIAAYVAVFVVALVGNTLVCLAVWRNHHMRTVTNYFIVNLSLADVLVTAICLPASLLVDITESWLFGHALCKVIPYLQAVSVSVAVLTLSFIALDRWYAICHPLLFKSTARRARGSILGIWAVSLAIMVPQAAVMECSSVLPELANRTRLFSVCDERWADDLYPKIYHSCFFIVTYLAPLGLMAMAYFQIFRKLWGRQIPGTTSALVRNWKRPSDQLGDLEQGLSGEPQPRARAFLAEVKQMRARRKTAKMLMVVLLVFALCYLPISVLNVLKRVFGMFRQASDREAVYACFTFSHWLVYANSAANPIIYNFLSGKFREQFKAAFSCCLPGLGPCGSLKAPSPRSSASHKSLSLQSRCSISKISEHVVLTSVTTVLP

Point of comparison: `CCN(C(=O)c1ccc(C#N)cc1-n1nccn1)[C@@H](C)COc1ncc(C(F)(F)F)cc1F` [Example 69], “OX2R Kb/OX1R Kb” value 136. Against it:
- CCN(C(=O)c1cccc(F)c1-c1nnc(C)o1)[C@@H](C)COc1ncc(C(F)(F)F)cc1F [Example 61] — higher, 452
- CCN(C(=O)c1ccccc1-c1nnc(C)o1)[C@@H](C)COc1ncc(C(F)(F)F)cc1F [Example 68] — higher, 527
- CCN(C(=O)c1ccccc1-c1ccn(C)n1)[C@@H](C)COc1ccc(C(F)(F)F)cn1 [Example 74] — lower, 123
- CCN(C(=O)c1ccccc1-c1cncc(C#N)c1)[C@@H](C)COc1ccc(C(F)(F)F)cn1 [Example 76] — lower, 113

same assay, conditions: OX1R Kb at 50 nM Orexin A

Point of comparison: `CCN(C(=O)c1cccc(C)c1-c1nnc(C)o1)[C@@H](C)COc1ncc(C(F)(F)F)cc1F` [Example 64], “OX2R Kb/OX1R Kb” value 705. Against it:
- CCN(C(=O)c1cc(C#N)ccc1-n1nccn1)[C@@H](C)COc1ncc(C(F)(F)F)cc1F [Example 57] — lower, 214
- CCN(C(=O)c1ccc(Cl)cc1-n1nccn1)[C@@H](C)COc1ncc(C(F)(F)F)cc1F [Example 73] — higher, 734
- CCN(C(=O)c1ccccc1-c1ccn(C)n1)[C@@H](C)COc1ccc(C(F)(F)F)cn1 [Example 74] — lower, 229
- CCN(C(=O)c1ccccc1-c1cncc(C#N)c1)[C@@H](C)COc1ccc(C(F)(F)F)cn1 [Example 76] — lower, 125

same assay, conditions: Orexin A 0.5 nM; read-out: OX1R Kb (Orexin A concentration used)

Point of comparison: `CCN(C(=O)c1ccccc1-c1cncc(C#N)c1)[C@@H](C)COc1ccc(C(F)(F)F)cn1` [Example 76], Kb 1.1 nM. Against it:
- CCN(C(=O)c1cccc(F)c1-c1nnc(C)o1)[C@@H](C)COc1ncc(C(F)(F)F)cc1F [Example 61] — 3-fold higher, 3.27 nM
- CCN(C(=O)c1ccccc1-c1nnc(C)o1)[C@@H](C)COc1ncc(C(F)(F)F)cc1F [Example 68] — 1.7-fold higher, 1.9 nM
- CCN(C(=O)c1ccc(C#N)cc1-n1nccn1)[C@@H](C)COc1ncc(C(F)(F)F)cc1F [Example 69] — 29-fold higher, 32 nM
- CCN(C(=O)c1ccccc1-c1ccn(C)n1)[C@@H](C)COc1ccc(C(F)(F)F)cn1 [Example 74] — 2.8-fold lower, 0.39 nM

same assay, conditions: Orexin A 50 nM; read-out: OX1R Kb (Orexin A concentration used)

Point of comparison: `CCN(C(=O)c1cccc(C)c1-c1nnc(C)o1)[C@@H](C)COc1ncc(C(F)(F)F)cc1F` [Example 64], Kb 0.22 nM. Against it:
- CCN(C(=O)c1cc(C#N)ccc1-n1nccn1)[C@@H](C)COc1ncc(C(F)(F)F)cc1F [Example 57] — 4.3-fold higher, 0.95 nM
- CCN(C(=O)c1ccc(Cl)cc1-n1nccn1)[C@@H](C)COc1ncc(C(F)(F)F)cc1F [Example 73] — within 1.5-fold, 0.32 nM
- CCN(C(=O)c1ccccc1-c1ccn(C)n1)[C@@H](C)COc1ccc(C(F)(F)F)cn1 [Example 74] — within 1.5-fold, 0.21 nM
- CCN(C(=O)c1ccccc1-c1cncc(C#N)c1)[C@@H](C)COc1ccc(C(F)(F)F)cn1 [Example 76] — 4.5-fold higher, 0.99 nM
